# Measured values from patent US20180256673A1, “METHODS FOR TREATING FUNGAL INFECTIONS” (priority 2015, published 2018).
# “And” between values parts separate entries of the source, which are not always exact repeats. Identical values can stand only once. Like-named read-outs stand apart in the source and are kept apart here.
# Legend:
# [1] = system: Cryptococcus neoformans var. grubii; assay: Broth microdilution of invasive fungal isolates (CLSI M27-A3/M38-A2); type: cell-based; settings: 19 isolates
# [2] = system: C. glabrata ATCC 90030, ATCC 2001; type: cell-based, Candida glabrata; settings: for Freq. (replicate mutation frequency): replicate plates 1-3; for Plate concentration: SDA, minimum concentration to cleanly inhibit growth
# Protocol: Spontaneous mutant selection. […] Three individual colonies from each strain were used to start cultures in RPMI. […] One milliliter aliquots were spread onto SDA plates containing drug with sterile glass beads. Starting viable count was enumerated by triplicate plating of serial dilutions of the starting inoculum. […] Glycerol stocks of putative mutant colonies were stored at −80° C. […] Spontaneous mutation frequencies were calculated by dividing the number of resistant colonies on a given plate by the starting inoculum plated. A subset of mutants (weighted heavily towards those selected with CMP1) were then evaluated by MIC and sequencing of FKS gene hot spot regions.
# Aspergillus fumigatus = assay: Broth microdilution of invasive fungal isolates (CLSI M27-A3/M38-A2), MEC; type: cell-based; settings: 56 isolates
# [3] = system: C. glabrata ATCC 90030, ATCC 2001; assay: Broth microdilution MIC (CLSI), Examples 3 and 4; settings: for MIC: Nakaseomyces glabratus
# Protocol: (§1) Antifungal susceptibility testing. Candida strains were cultured aerobically at 35° C. on SDA plates or in RPMI 1640 broth (pH 7.0). […] MIC assays were performed in triplicate.
# C. krusei ATCC 6258 = assay: Broth microdilution MIC (CLSI), Examples 3 and 4; settings: Pichia kudriavzevii, ATCC6258, 24 h, read-out: Broth MIC
# Protocol: as §1
# [4] = system: azole-resistant Candida albicans R357 strain; assay: microbe, parasite or virus in culture; type: cell-based; settings: for Susceptibility (CLSI): C. albicans R357; for MIC: Candida albicans
# Candida tropicalis = assay: Broth microdilution of invasive fungal isolates (CLSI M27-A3/M38-A2); type: cell-based
# Candida glabrata = assay: microbe, parasite or virus in culture; type: cell-based
# Candida albicans = assay: Broth microdilution of invasive fungal isolates (CLSI M27-A3/M38-A2); type: cell-based
# Candida orthopsilosis = assay: as above; type: cell-based; settings: 10 isolates
# [5] = system: azole-resistant C. albicans (R357); assay: Immunosuppressed rat model of vulvovaginal candidiasis, vaginal CFU; type: in vivo, Candida albicans; settings: oral 20 mg/kg once daily for three days; days 5 and 12
# [6] = system: azole-resistant Candida albicans (R357); assay: Disseminated infection model in neutropenic ICR mice, kidney fungal counts (Example 10, Tables 22-23); type: in vivo; settings: for reduction in colony counts compared to the vehicle control group: kidney, 20 mg/kg PO once
smiles,measurement,setting,value
"CC[C@H](C)C[C@H](C)CCCCCCCCC(=O)N[C@H]1C[C@@H](O)[C@@H](NCCN)NC(=O)[C@@H]2[C@@H](O)CCN2C(=O)[C@H]([C@H](O)CCN)NC(=O)[C@H]([C@H](O)[C@@H](O)c2ccc(O)cc2)NC(=O)[C@@H]2C[C@@H](O)CN2C(=O)[C@H]([C@@H](C)O)NC1=O [CAS, caspofungin]",Cumulative % of isolates inhibited at MIC 8 μg/mL,[1],(21.1) %
same,Cumulative % of isolates inhibited at MIC >8 μg/mL,[1],(100.0) %
same,Number of isolates inhibited at MIC 8 μg/mL,[1],4
same,Number of isolates inhibited at MIC >8 μg/mL,[1],15
same,MIC50,"[1]; Cryptococcus neoformans, read-out: MIC50",8 µg/mL
same,MIC90,"[1]; Cryptococcus neoformans, read-out: MIC90",8 µg/mL
same,Median mutation frequency,[2]; ATCC 2001,3.16E−08
same,Freq. (replicate mutation frequency),[2]; ATCC 2001,3.16E−08 and 2.92E−08 and 3.50E−08
same,Median mutation frequency,[2]; ATCC 90030,3.45E−07
same,Freq. (replicate mutation frequency),[2]; ATCC 90030,4.85E−07 and 3.45E−07 and 2.57E−07
same,Plate concentration,[2]; ATCC 2001,0.5 µg/mL
same,Plate concentration,[2]; ATCC 90030,0.5 µg/mL
same,Cumulative % of isolates inhibited at MEC 0.015 μg/mL,Aspergillus fumigatus,(32.1) %
same,Cumulative % of isolates inhibited at MEC 0.03 μg/mL,Aspergillus fumigatus,(94.6) %
same,Cumulative % of isolates inhibited at MEC 0.06 μg/mL,Aspergillus fumigatus,(100.0) %
same,Number of isolates inhibited at MEC 0.015 μg/mL,Aspergillus fumigatus,18
same,Number of isolates inhibited at MEC 0.03 μg/mL,Aspergillus fumigatus,35
same,Number of isolates inhibited at MEC 0.06 μg/mL,Aspergillus fumigatus,3
same,Broth MIC,"[3]; ATCC 2001 wild-type, 24 h, ~50% inhibition",0.25 µg/mL
same,MIC,"[3]; 24 h, read-out: Broth MIC",0.25 µg/mL
same,MIC,"[3]; ATCC2001|ATCC90030, ATCC 2001 spontaneous mutant, Fks2 HS1 D666N",0.25 µg/mL
same,MIC,"[3]; ATCC2001|ATCC90030, ATCC 2001 spontaneous mutant, Fks2 HS1 D666Y",0.5 µg/mL
same,MIC,"[3]; ATCC2001|ATCC90030, ATCC 2001 spontaneous mutant, Fks2 HS1 R665G",0.5 µg/mL
same,MIC,"[3]; ATCC2001|ATCC90030, ATCC 2001 spontaneous mutant, Fks2 HS1 S663F",1 µg/mL
same,MIC,"[3]; ATCC2001|ATCC90030, ATCC 2001 spontaneous mutant, Fks2 HS1 ΔF659",16 µg/mL
same,MIC,"[3]; ATCC2001|ATCC90030, ATCC 2001 spontaneous mutant, Fks2 HS2 R1378S",0.25 µg/mL
same,MIC,"[3]; ATCC2001|ATCC90030, ATCC 90030 spontaneous mutant, Fks2 HS1 D666H",1 µg/mL
same,MIC,"[3]; ATCC2001|ATCC90030, ATCC 90030 spontaneous mutant, Fks2 HS1 ΔF659",4 µg/mL
same,MIC,C. krusei ATCC 6258,0.5 µg/mL
same,Susceptibility (CLSI),[4],S
same,MIC,[4],0.25 µg/mL
same,Cumulative % of isolates inhibited at MIC 0.015 μg/mL,Candida tropicalis; 51 isolates,(23.5) %
same,Cumulative % of isolates inhibited at MIC 0.03 μg/mL,Candida tropicalis; 51 isolates,(68.6) %
same,Cumulative % of isolates inhibited at MIC 0.06 μg/mL,Candida tropicalis; 51 isolates,(98.0) %
same,Cumulative % of isolates inhibited at MIC 0.12 μg/mL,Candida tropicalis; 51 isolates,(100.0) %
same,Number of isolates inhibited at MIC 0.015 μg/mL,Candida tropicalis; 51 isolates,12
same,Number of isolates inhibited at MIC 0.03 μg/mL,Candida tropicalis; 51 isolates,23
same,Number of isolates inhibited at MIC 0.06 μg/mL,Candida tropicalis; 51 isolates,15
same,Number of isolates inhibited at MIC 0.12 μg/mL,Candida tropicalis; 51 isolates,1
same,MIC50,"Candida tropicalis; Candida tropicalis, 51 isolates, read-out: MIC50",0.03 µg/mL
same,MIC90,"Candida tropicalis; Candida tropicalis, 51 isolates, read-out: MIC90",0.06 µg/mL
same,Cumulative % of isolates inhibited at MIC 0.03 μg/mL,Candida glabrata; 100 isolates,(38.0) %
same,Cumulative % of isolates inhibited at MIC 0.06 μg/mL,Candida glabrata; 100 isolates,(89.0) %
same,Cumulative % of isolates inhibited at MIC 0.12 μg/mL,Candida glabrata; 100 isolates,(95.0) %
same,Cumulative % of isolates inhibited at MIC 0.25 μg/mL,Candida glabrata; 100 isolates,(95.0) %
same,Cumulative % of isolates inhibited at MIC 0.5 μg/mL,Candida glabrata; 100 isolates,(95.0) %
same,Cumulative % of isolates inhibited at MIC 1 μg/mL,Candida glabrata; 100 isolates,(95.0) %
same,Cumulative % of isolates inhibited at MIC 2 μg/mL,Candida glabrata; 100 isolates,(97.0) %
same,Cumulative % of isolates inhibited at MIC 4 μg/mL,Candida glabrata; 100 isolates,(97.0) %
same,Cumulative % of isolates inhibited at MIC 8 μg/mL,Candida glabrata; 100 isolates,(100.0) %
same,Number of isolates inhibited at MIC 0.03 μg/mL,Candida glabrata; 100 isolates,38
same,Number of isolates inhibited at MIC 0.06 μg/mL,Candida glabrata; 100 isolates,51
same,Number of isolates inhibited at MIC 0.12 μg/mL,Candida glabrata; 100 isolates,6
same,Number of isolates inhibited at MIC 0.25 μg/mL,Candida glabrata; 100 isolates,0
same,Number of isolates inhibited at MIC 0.5 μg/mL,Candida glabrata; 100 isolates,0
same,Number of isolates inhibited at MIC 1 μg/mL,Candida glabrata; 100 isolates,0
same,Number of isolates inhibited at MIC 2 μg/mL,Candida glabrata; 100 isolates,3
same,Number of isolates inhibited at MIC 4 μg/mL,Candida glabrata; 100 isolates,0
same,Number of isolates inhibited at MIC 8 μg/mL,Candida glabrata; 100 isolates,3
same,MIC50,Candida glabrata; Nakaseomyces glabratus,0.06 µg/mL
same,MIC90,Candida glabrata; Nakaseomyces glabratus,0.12 µg/mL
same,MIC,"Candida glabrata; Nakaseomyces glabratus, read-out: MIC according to CLSI method, isolate from CA, USA, fks1 HS1 S629P",8 µg/mL
same,MIC,"Candida glabrata; Nakaseomyces glabratus, read-out: MIC according to CLSI method, isolate from Canada (first line), fks1 HS1 S629P, fks2 HS1 S663P",> 8 µg/mL
same,MIC,"Candida glabrata; Nakaseomyces glabratus, read-out: MIC according to CLSI method, isolate from Canada (second line), fks1 HS1 S629P, fks2 HS1 S663P",> 8 µg/mL
same,MIC,"Candida glabrata; Nakaseomyces glabratus, read-out: MIC according to CLSI method, isolate from Israel, fks2 HS1 F659S",2 µg/mL
same,MIC,"Candida glabrata; Nakaseomyces glabratus, read-out: MIC according to CLSI method, isolate from NY, USA, fks2 HS1 S663P",2 µg/mL
same,MIC,"Candida glabrata; Nakaseomyces glabratus, read-out: MIC results, two isolates from same patient, Edmonton, Canada, fks1 HS1 S629P and fks2 HS1 S663P",> 8 µg/mL
same,Cumulative % of isolates inhibited at MIC 0.015 μg/mL,Candida albicans; 251 isolates,(31.9) %
same,Cumulative % of isolates inhibited at MIC 0.03 μg/mL,Candida albicans; 251 isolates,(85.7) %
same,Cumulative % of isolates inhibited at MIC 0.06 μg/mL,Candida albicans; 251 isolates,(99.2) %
same,Cumulative % of isolates inhibited at MIC 0.12 μg/mL,Candida albicans; 251 isolates,(100.0) %
same,Cumulative % of isolates inhibited at MIC ≤0.008 μg/mL,Candida albicans; 251 isolates,1.6%
same,Number of isolates inhibited at MIC 0.015 μg/mL,Candida albicans; 251 isolates,76
same,Number of isolates inhibited at MIC 0.03 μg/mL,Candida albicans; 251 isolates,135
same,Number of isolates inhibited at MIC 0.06 μg/mL,Candida albicans; 251 isolates,34
same,Number of isolates inhibited at MIC 0.12 μg/mL,Candida albicans; 251 isolates,2
same,Number of isolates inhibited at MIC ≤0.008 μg/mL,Candida albicans; 251 isolates,4
same,MIC50,"Candida albicans; Candida albicans, 251 isolates, read-out: MIC50",0.03 µg/mL
same,MIC90,"Candida albicans; Candida albicans, 251 isolates, read-out: MIC90",0.06 µg/mL
same,Cumulative % of isolates inhibited at MIC 0.06 μg/mL,Candida orthopsilosis,(10.0) %
same,Cumulative % of isolates inhibited at MIC 0.12 μg/mL,Candida orthopsilosis,(40.0) %
same,Cumulative % of isolates inhibited at MIC 0.25 μg/mL,Candida orthopsilosis,(70.0) %
same,Cumulative % of isolates inhibited at MIC 0.5 μg/mL,Candida orthopsilosis,(100.0) %
same,Number of isolates inhibited at MIC 0.06 μg/mL,Candida orthopsilosis,1
same,Number of isolates inhibited at MIC 0.12 μg/mL,Candida orthopsilosis,3
same,Number of isolates inhibited at MIC 0.25 μg/mL,Candida orthopsilosis,3
same,Number of isolates inhibited at MIC 0.5 μg/mL,Candida orthopsilosis,3
same,MIC50,"Candida orthopsilosis; Lodderomyces orthopsilosis, read-out: MIC50",0.25 µg/mL
same,MIC90,"Candida orthopsilosis; Lodderomyces orthopsilosis, read-out: MIC90",0.5 µg/mL
"OC(Cn1cncn1)(Cn1cncn1)c1ccc(F)cc1F [FLU, fluconazole]",reduction in vaginal CFU compared with no treatment control,[5],< 1 log-fold
same,Susceptibility (CLSI),[4],R
same,MIC,[4],> 64 µg/mL
same,"antimicrobial effect versus vehicle (one-way ANOVA, Dunnett's test)","[6]; 48 and 72 hr after infection, Compound 1 3, 10, 30 mg/kg IP, amphotericin B 1 and 3 mg/kg IV, fluconazole 20 mg/kg PO",not significant
same,reduction in colony counts compared to the vehicle control group,[6]; 48 hr after infection,51%
same,reduction in colony counts compared to the vehicle control group,[6]; 72 hr after infection,84%
same,% of isolates with fluconazole resistance,Candida tropicalis; CLSI breakpoints,2.0%
same,% of isolates with fluconazole resistance,Candida albicans; CLSI breakpoints,2.0%
